Test results as given in ChEMBL document CHEMBL1201862, “PubChem BioAssay data set” (2004).
Active and inactive are the calls of the source.

What was measured:
[1] = inhibitors of intracellular T. cruzi replication, confirmation, NIH3T3 host cells, beta-gal luminescence (AID 2044); assay type: functional, cell-based;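 further: intracellular parasites grown in NIH/3T3 mouse fibroblasts as host cells; luminescent beta-galactosidase reporter signal from transgenic T. cruzi replicating inside host cells; inhibitors lower the luminescence signal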
[2] = cytotoxicity toward NIH3T3 fibroblasts, dose response, counter-screen, cell-based, ATP luminescence, mouse fibroblasts (AID 2010); assay type: functional;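 further: cells exposed to compound for about 90 hours before reading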
Cytochrome P450 2C9 = Cytochrome P450 2C9 (Homo sapiens, UniProt P11712)
Cytochrome P450 1A2 = molecular target: T1, Cytochrome P450 1A2 (Homo sapiens, UniProt P05177);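 further: PubChem cytochrome P450 panel assay, CYP1A2 panel member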
T1 sequence (P05177 whole entry): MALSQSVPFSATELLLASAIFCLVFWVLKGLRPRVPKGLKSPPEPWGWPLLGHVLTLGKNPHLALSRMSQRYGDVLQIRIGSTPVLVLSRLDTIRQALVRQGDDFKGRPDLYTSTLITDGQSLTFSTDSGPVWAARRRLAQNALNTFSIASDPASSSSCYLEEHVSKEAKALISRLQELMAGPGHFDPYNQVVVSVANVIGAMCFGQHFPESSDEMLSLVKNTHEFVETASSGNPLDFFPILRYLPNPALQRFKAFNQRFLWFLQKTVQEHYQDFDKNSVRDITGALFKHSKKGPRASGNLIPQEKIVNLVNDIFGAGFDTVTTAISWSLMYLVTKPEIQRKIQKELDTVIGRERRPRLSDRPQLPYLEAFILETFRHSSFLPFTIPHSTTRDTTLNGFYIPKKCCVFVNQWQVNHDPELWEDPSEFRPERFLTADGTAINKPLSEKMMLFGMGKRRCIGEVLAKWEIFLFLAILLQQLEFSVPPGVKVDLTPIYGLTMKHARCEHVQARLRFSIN

Cytochrome P450 3A4 = Cytochrome P450 3A4 (Homo sapiens, UniProt P08684);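 further: CYP3A4 tested as one member of a cytochrome P450 panel screen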
Chain of Cytochrome P450 3A4 (P08684 whole entry): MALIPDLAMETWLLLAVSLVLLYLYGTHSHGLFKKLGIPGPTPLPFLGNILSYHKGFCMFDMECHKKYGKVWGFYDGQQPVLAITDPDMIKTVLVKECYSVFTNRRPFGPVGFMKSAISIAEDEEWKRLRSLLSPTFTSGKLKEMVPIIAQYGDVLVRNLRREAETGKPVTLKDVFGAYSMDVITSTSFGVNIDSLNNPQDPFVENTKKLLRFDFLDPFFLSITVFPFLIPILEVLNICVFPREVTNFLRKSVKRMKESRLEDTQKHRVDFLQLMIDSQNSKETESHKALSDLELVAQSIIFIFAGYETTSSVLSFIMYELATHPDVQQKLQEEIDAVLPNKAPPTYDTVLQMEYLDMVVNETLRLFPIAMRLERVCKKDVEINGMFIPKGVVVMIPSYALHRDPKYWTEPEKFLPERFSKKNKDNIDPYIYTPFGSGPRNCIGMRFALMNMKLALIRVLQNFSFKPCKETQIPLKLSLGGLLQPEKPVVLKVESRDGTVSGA

Chain of Cytochrome P450 2C9 (P11712 whole entry): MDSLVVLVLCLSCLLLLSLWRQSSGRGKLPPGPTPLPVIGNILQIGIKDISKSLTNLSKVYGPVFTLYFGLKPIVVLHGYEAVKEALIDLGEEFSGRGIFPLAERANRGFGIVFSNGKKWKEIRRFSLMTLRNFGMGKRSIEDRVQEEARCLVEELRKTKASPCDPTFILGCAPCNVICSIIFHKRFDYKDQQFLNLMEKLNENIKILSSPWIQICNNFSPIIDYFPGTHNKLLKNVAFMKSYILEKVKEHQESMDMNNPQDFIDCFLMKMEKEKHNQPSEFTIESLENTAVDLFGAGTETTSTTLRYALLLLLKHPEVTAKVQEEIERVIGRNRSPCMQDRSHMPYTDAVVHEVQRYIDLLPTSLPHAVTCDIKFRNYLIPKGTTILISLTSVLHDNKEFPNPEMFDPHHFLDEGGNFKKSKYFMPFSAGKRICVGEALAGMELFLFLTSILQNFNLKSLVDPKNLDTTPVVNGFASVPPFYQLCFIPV

Compound	EC50 [1]	EC50 [2]	AC50 (Cytochrome P450 2C9)	AC50 (Cytochrome P450 1A2)	further results
Cc1cccc(NC(=O)c2cccc(Cn3cc(Br)c([N+](=O)[O-])n3)c2)c1C	0.834 µM (active)	39 µM (active)			
Cc1ccc(C)c(N2CCN(C(=O)c3ccc(Cn4c(=S)[nH]c5ccc(N6CCOCC6)cc5c4=O)cc3)CC2)c1	0.458 µM (active)	> 60 µM (not active)			
CN(C)c1ncc2nc(-c3ccc(F)cc3)c(=O)n(C3CC3)c2n1			0.251 µM (inconclusive)		
O=[N+]([O-])c1ccc([C@@H](Nc2ccccc2)c2ccc3cccnc3c2O)cc1			6.31 µM (inconclusive)		
COc1cccc(Nc2ncc3nc(-c4cccs4)c(=O)n(Cc4cccs4)c3n2)c1				2 µM (inconclusive)	
N#C/C(=C\c1cc([N+](=O)[O-])c(N2CCCCC2)cc1N1CCCCC1)c1nn(-c2ccccc2)c(N)c1C#N					AC50 (Cytochrome P450 3A4): 2.24 µM (inconclusive)
Cc1cccc(N(CC(=O)NC2CCCC2)C(=O)c2cc3cc4cccc(C)c4nc3s2)c1C	1.6 µM (active)	> 60 µM (not active)			
OCCNCCCOc1cccc(Cl)c1Cl					AC50 (Cytochrome P450 3A4): 31.6 µM (inconclusive)
COc1ccc(OC)c(NC(=O)c2cc3n(n2)C(C(F)(F)F)CC(c2ccc4c(c2)OCO4)N3)c1 (centres undefined)			0.794 µM (inconclusive)		
CCCNC(=O)OC[C@@H]1O[C@H](CCO/N=C2\c3cc(OC)ccc3O[C@H](c3cccc(OC)c3)[C@H]2O)C=C[C@@H]1Oc1ccc(OC)cc1			6.31 µM (inconclusive)		
Clc1ccc(OCCCCCN2CCCC2)c(Br)c1	0.231 µM (active)	10.9 µM (active)			
COc1c(F)c(F)c(C(=O)O)c(Nc2ccc(C)cc2)c1F				22.4 µM (inconclusive)	
COc1cc2c(C(=O)N3CCN(C)CC3)c(C)n(-c3ccccc3)c2cc1Br			22.4 µM (inconclusive)	25.1 µM (inconclusive)	
CCOC(=O)CNS(=O)(=O)c1cc(-c2nn(C)c(=O)c3ccccc23)ccc1C					AC50 (Cytochrome P450 3A4): 39.8 µM (inconclusive)
C=CCNc1cnn(-c2ccc(C)cc2)c(=O)c1Cl				28.2 µM (inconclusive)	
CC(=O)Nc1cccc(NC(=O)C2CCCN2C(=O)Nc2ccccc2C)c1 (centres undefined)			20 µM (inconclusive)	25.1 µM (inconclusive)	

Compound	EC50 [1]	EC50 [2]	AC50 (Cytochrome P450 2C9)	AC50 (Cytochrome P450 1A2)	further results
O=C(CCC(=O)OCc1ccc(C(=O)Oc2ccccc2)cc1)Nc1cccc2ccccc12				8.91 µM (inconclusive)	
CCc1ccc(OCC(=O)OC2CCS(=O)(=O)C2)cc1 (centres undefined)				12.6 µM (inconclusive)	
Cn1c(=O)c(-c2cccs2)nc2cncnc21			39.8 µM (inconclusive)		
CCc1ccc(OCCNC(=O)c2ccccc2SCc2ccc(F)cc2)cc1	2.67 µM (active)	> 60 µM (not active)			
CC(C)(CO)N1CCN(C(S)=Nc2ccccc2)CC1				6.31 µM (inconclusive)	
CCNCc1cc(OCC)c(OCC(=O)NCCc2ccccc2)cc1Cl			20 µM (inconclusive)		
CN1CCCC2(CCN(S(=O)(=O)c3ccccc3)CC2)C1				20 µM (inconclusive)	
O=C(Cn1cnc2cc([N+](=O)[O-])ccc2c1=O)Nc1ccccc1-c1ccccc1	0.629 µM (active)	> 30 µM (not active)			
Cc1ccc(-c2cc(C(F)F)n3ncc(C(=O)N4CCN(c5ccccn5)CC4)c3n2)cc1	0.5 µM (active)	> 60 µM (not active)			
COc1ccccc1CN1CCCC(C(=O)c2ccccc2SC)C1 (centres undefined)	1.6 µM (active)	> 60 µM (not active)			
CCc1sc(-c2c(C#N)c(N)nc3c2CCCCCC3)cc1[N+](=O)[O-]			2.82 µM (inconclusive)		
CN1CCN(/N=C/c2ccc(-c3ccc([N+](=O)[O-])cc3)o2)CC1	1.11 µM (active)	> 60 µM (not active)			
FC(F)(F)c1nc2ccc(SSc3ccc4nc(C(F)(F)F)[nH]c4c3)cc2[nH]1			7.94 µM (inconclusive)	0.501 µM (inconclusive)	
Cc1cccc(Nc2nc(-c3ccncc3)cs2)c1	0.154 µM (active)	6.1 µM (active)			
CCCCCCCC(=O)O[C@H](CC(=O)O)C[N+](C)(C)C [OCTANOYLCARNITINE]				31.6 µM (inconclusive)	
